This assay deals with db/db mice (BKS.Cg-m+/+Lepr^db/J). The assay is described as follows: In vivo efficacy: control of body mass in db/db mice. To be noted: five week old at start, ad libitum p.o. in drinking water (5 mM chromium, pH 5.8), on average 1 mg/kg/day, over 22 weeks, control mice receiving water reached 43 g. How it is done: The mice were otherwise fed normal chow. Over the course of 22 weeks, the mice consumed on average 1 mg/kg/day of the compound. Mice on treatment reached an average mass of 37 g, while control mice receiving water reached an average mass of 43 g.

Take Chromium Quinolinate [Example 1]: the average mass reached is reported as 37 g.

These data come from US20070254864A1, “CHROMIUM COMPLEXES” (Mandrillus Pharma, LLC, priority 2006, published 2007).
